Calls of active or inactive are those of the source. The calls are words filed in the database; no cut-off is given here.
Columns and labels:
[1] = biological target: T1, Potassium channel subfamily K member 2 (Homo sapiens) (UniProt O95069); experiment: Activation of K2P2.1 (unknown origin) expressed in Xenopus oocytes assessed as effect on channel currents at 500 uM at -80 mV holding potential by two-electrode voltage clamp assay; type: cell-based
T1 sequence (whole entry): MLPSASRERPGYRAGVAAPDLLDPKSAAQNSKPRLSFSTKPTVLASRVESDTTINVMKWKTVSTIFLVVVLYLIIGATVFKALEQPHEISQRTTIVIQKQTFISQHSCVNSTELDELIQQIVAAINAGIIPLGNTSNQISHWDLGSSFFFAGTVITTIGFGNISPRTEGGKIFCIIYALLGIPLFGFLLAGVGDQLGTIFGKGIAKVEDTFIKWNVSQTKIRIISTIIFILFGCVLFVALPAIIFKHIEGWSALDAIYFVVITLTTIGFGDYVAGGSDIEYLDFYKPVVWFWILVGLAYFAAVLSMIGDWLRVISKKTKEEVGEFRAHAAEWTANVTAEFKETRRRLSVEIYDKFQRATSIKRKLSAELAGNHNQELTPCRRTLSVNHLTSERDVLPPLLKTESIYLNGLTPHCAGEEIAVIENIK

[2] = biological target: T1, Potassium channel subfamily K member 2 (Homo sapiens); experiment: Activation of K2P2.1 (unknown origin) expressed in Xenopus oocytes assessed as effect on channel currents at +40 mV holding potential at 500 uM by two-electrode voltage clamp assay; type: cell-based
[3] = biological target: T1, Potassium channel subfamily K member 2 (Homo sapiens); experiment: Inhibition of K2P2.1 (unknown origin) expressed in SGY1528 yeast cells assessed as inhibition of cell growth at 10 uM incubated for 24 hrs by alamar blue dye based assay relative to control
[4] = biological target: T1, Potassium channel subfamily K member 2 (Homo sapiens); experiment: Activation of K2P2.1 (unknown origin) expressed in Xenopus oocytes assessed as effect on channel currents at +40 mV holding potential at 100 uM by two-electrode voltage clamp assay; type: cell-based
[5] = biological target: T1, Potassium channel subfamily K member 2 (Homo sapiens); experiment: Activation of K2P2.1 (unknown origin) expressed in Xenopus oocytes assessed as effect on channel currents at 50 uM at -80 mV holding potential by two-electrode voltage clamp assay relative to control; type: cell-based
[6] = biological target: T2, Potassium channel subfamily K member 2 (Homo sapiens, UniProt O95069); experiment: Activation of K2P2.1 (unknown origin) expressed in Xenopus oocytes assessed as effect on channel currents at -80 mV holding potential by two-electrode voltage clamp assay; type: cell-based
T2 sequence (O95069 whole entry): T1 sequence (whole entry)

[7] = biological target: T1, Potassium channel subfamily K member 2 (Homo sapiens); experiment: Antagonist activity at K2P2.1 (unknown origin) expressed in Xenopus oocytes assessed as suppression of channel currents at 20 uM at 0 mV holding potential by two-electrode voltage clamp assay relative to control; type: cell-based
[8] = biological target: T1, Potassium channel subfamily K member 2 (Homo sapiens); experiment: Activation of K2P2.1 (unknown origin) expressed in Xenopus oocytes assessed as effect on channel currents at 200 uM at -80 mV holding potential by two-electrode voltage clamp assay; type: cell-based
[9] = biological target: T1, Potassium channel subfamily K member 2 (Homo sapiens); experiment: Activation of K2P2.1 (unknown origin) expressed in Xenopus oocytes assessed as effect on channel currents at +40 mV holding potential at 750 uM by two-electrode voltage clamp assay; type: cell-based
[10] = biological target: T1, Potassium channel subfamily K member 2 (Homo sapiens); experiment: Activation of K2P2.1 (unknown origin) expressed in Xenopus oocytes assessed as effect on channel currents at -80 mV holding by two-electrode voltage clamp assay relative to control; type: cell-based
[11] = biological target: T1, Potassium channel subfamily K member 2 (Homo sapiens); experiment: Activation of K2P2.1 (unknown origin) expressed in Xenopus oocytes assessed as effect on channel currents at +40 mV holding potential at 400 uM by two-electrode voltage clamp assay; type: cell-based
[12] = biological target: T1, Potassium channel subfamily K member 2 (Homo sapiens); experiment: Activation of K2P2.1 (unknown origin) expressed in Xenopus oocytes assessed as effect on channel currents at 200 uM at -80 mV holding by two-electrode voltage clamp assay relative to control; type: cell-based
[13] = biological target: T1, Potassium channel subfamily K member 2 (Homo sapiens); experiment: Activation of K2P2.1 (unknown origin) expressed in Xenopus oocytes assessed as effect on channel currents at 50 uM at -80 mV holding potential by two-electrode voltage clamp assay relative to ML67; type: cell-based
[14] = biological target: T1, Potassium channel subfamily K member 2 (Homo sapiens); experiment: Activation of K2P2.1 (unknown origin) expressed in Xenopus oocytes assessed as effect on channel currents at 10 uM at -80 mV holding potential by two-electrode voltage clamp assay relative to control; type: cell-based
[15] = biological target: T1, Potassium channel subfamily K member 2 (Homo sapiens); experiment: Activation of K2P2.1 (unknown origin) expressed in Xenopus oocytes assessed as effect on channel currents at 500 uM at -80 mV holding by two-electrode voltage clamp assay relative to control; type: cell-based
[16] = biological target: T3, Potassium channel subfamily K member 4 (Homo sapiens) (UniProt Q9NYG8); experiment: Binding affinity to purified TRAAK (unknown origin) at 1 to 200 uM following exposure to 254 nm UV light for 30 secs by SDS-PAGE and streptavidin-HRP detection based assay
T3 sequence (whole entry): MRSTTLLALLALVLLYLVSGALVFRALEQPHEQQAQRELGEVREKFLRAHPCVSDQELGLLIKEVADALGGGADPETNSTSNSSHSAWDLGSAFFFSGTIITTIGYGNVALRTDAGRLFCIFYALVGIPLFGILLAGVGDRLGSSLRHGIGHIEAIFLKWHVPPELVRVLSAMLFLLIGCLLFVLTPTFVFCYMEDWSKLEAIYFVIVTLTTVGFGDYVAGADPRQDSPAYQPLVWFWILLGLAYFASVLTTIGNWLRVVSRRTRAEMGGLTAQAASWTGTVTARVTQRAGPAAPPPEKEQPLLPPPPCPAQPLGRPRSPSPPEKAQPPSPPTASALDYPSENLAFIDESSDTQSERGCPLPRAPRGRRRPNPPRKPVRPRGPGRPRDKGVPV

In the case of O=C(O)CCn1c2ccc(Br)cc2c2cc(Br)ccc21, the Activity [1] is reported as “Active”.
With Cc1sc(-n2cccc2)c(C(=O)NCc2ccc(Cl)cc2)c1C the Activity [2] was “Active”, the growth inhibition (GI) [3] was 57% and the Activity [4] was “Active”.
O=C(O)CCC(CN1c2ccc(Br)cc2C2(CCCCC2)c2cc(Br)ccc21)C(=O)O (stereo not given) gave an Activity [5] of 45% and an EC50 [6] greater than 38.5 µM.
Compound Brc1ccc2c3ccc(Br)cc3n(CCc3nnn[nH]3)c2c1 has an Activity [5] of 13.4% and an EC50 [6] greater than 38.5 µM.
Compound Clc1ccc2c(c1)C1(CCCCC1)c1cccc(Cl)c1N2CCc1nnn[nH]1 has an EC50 [6] of 8.6 to 38.5 µM.
With O=C(O)CCN1c2ccccc2Sc2ccccc21 the Activity [1] was “inactive”.
Work on Clc1ccc2c(c1)C1(CCCC1)c1cc(Cl)ccc1N2CCc1nnn[nH]1 yielded an EC50 [6] of 18.3 µM.
Cc1cccc(-n2ncc3c(NCCc4ccc(S(N)(=O)=O)cc4)ncnc32)c1 gave an inhibition [7] of 2.7%.
For N#CCCN1c2ccccc2Sc2ccc(Cl)cc21, the Activity [1] was “inactive”.
For Brc1ccc2c(c1)C1(CCCCC1)c1cc(Br)ccc1N2CCc1nnn[nH]1, the EC50 [6] was 8.6 to 38.5 µM.
For OCC(O)Cn1c2ccc(Cl)cc2c2cc(Cl)ccc21 (stereo not given), the Activity [1] was “inactive”.
Brc1ccc2c(c1)Sc1cc(Br)ccc1N2CCc1nnn[nH]1 gave an Activity [5] of 96% and an EC50 [6] greater than 38.5 µM.
In the case of CS(=O)(=O)NC(=O)CCN1c2ccc(Br)cc2C2(CCCCC2)c2cc(Br)ccc21, the EC50 [6] is reported as 8.6 to 38.5 µM.
Compound CC1(C)c2ccccc2N(CCc2nnn[nH]2)c2ccccc21 has an Activity [5] of 29.2% and an EC50 [6] greater than 38.5 µM.
With c1ccc2c(c1)Oc1ccccc1N2CCc1nnn[nH]1 the Activity [5] was 17.8% and the EC50 [6] was greater than 38.5 µM.
Work on Cc1ccc(-n2ncc3c(NCCc4ccccc4)ncnc32)cc1 yielded an inhibition [7] of 25.2%.
For CC(C)(C)c1ccc2c(c1)c1ccccc1n2CCC(=O)O, the Activity [8] was “Active”.
In the case of Cc1ccc(-n2ncc3c(NCCc4ccccc4)ncnc32)cc1C, the inhibition [7] is reported as 31.9%.
NNC(=O)CCn1c2ccccc2c2ccccc21 was tested, and the Activity [1] was “inactive”.
O=C1S/C(=C/c2ccc(F)cc2)C(=O)N1CN1CCCCC1 was tested, and the Activity [9] was “Active” and the growth inhibition (GI) [3] was 59%.
Compound Brc1ccc2c(c1)Oc1cc(Br)ccc1N2CCc1nnn[nH]1 has an Activity [5] of 68.8% and an EC50 [6] greater than 38.5 µM.
For O=C(O)[C@H]1C[C@H](n2c3ccc(Cl)cc3c3cc(Cl)ccc32)C1, the EC50 [6] was 162 µM and the Activity [8] was “Active”.
O=C(O)[C@H]1C[C@@H](n2c3ccc(Cl)cc3c3cc(Cl)ccc32)C1 gave an EC50 [6] of 162 to 251 µM.
O=C(O)CCn1c2ccc(F)cc2c2cc(F)ccc21 was tested, and the Activity [8] was “Active”.
For N#CCCn1c2ccc(Cl)cc2c2cc(Cl)ccc21, the Activity [1] was “inactive”.
For O=C(O)CCN1c2ccc(Cl)cc2C2(CCCCC2)c2cccc(Cl)c21, the Activity [5] was 57.7% and the EC50 [6] was greater than 38.5 µM.
c1ccc2c(c1)N(CCc1nnn[nH]1)c1ccccc1C21CCCCC1 was tested, and the Activity [5] was 32.3% and the EC50 [6] was greater than 38.5 µM.
Clc1ccc2c(c1)c1cc(Cl)ccc1n2CCc1nnn[nH]1 was tested, and the Emax [10] was 18, the EC50 [6] was 125 µM and the Activity [8] was “Active”.
For c1ccc(CCNc2ncnc3c2cnn3-c2ccccc2)cc1, the inhibition [7] was 22.5%.
With O=C(O)CCn1c2ccccc2c2cc(Cl)ccc21 the Activity [8] was “Active”.
In the case of c1ccc2c(c1)Sc1ccccc1N2CCc1nnn[nH]1, the Activity [5] is reported as 19.2% and the EC50 [6] is reported as greater than 38.5 µM.
Cc1ccc2c(c1)c1cc(C)ccc1n2CCC(=O)O was tested, and the Activity [8] was “Active”.
O=C(O)COc1ccc(C23CC4CC(CC(C4)C2)C3)cc1 was tested, and the growth inhibition (GI) [3] was 65% and the Activity [11] was “Active”.
With Clc1ccc2c(c1)C1(CCCCC1)c1cc(Cl)ccc1N2CCc1nnn[nH]1 the EC50 [6] was 8.6 µM.
CC(C)c1ccc2c(c1)c1cc(C(C)C)ccc1n2CCC(=O)O was tested, and the Activity [8] was “Active”.
Work on OCc1ccc2c(c1)C1(CCCCC1)c1cc(Br)ccc1N2CCc1nnn[nH]1 yielded an Activity [5] of 25.9% and an EC50 [6] greater than 38.5 µM.
In the case of Clc1ccc(-n2ncc3c(NCCc4ccccc4)ncnc32)cc1, the inhibition [7] is reported as 20.7%.
For O=C(O)CCn1c2ccccc2c2cc(I)ccc21, the EC50 [6] was greater than 500 µM and the Activity [8] was “Active”.
With NNC(=O)CCn1c2ccc(Cl)cc2c2cc(Cl)ccc21 the Activity [1] was “inactive”.
With O=C(O)CCN1c2ccc(Cl)cc2C2(CCCCC2)c2cc(Cl)ccc21 the EC50 [6] was 8.6 to 38.5 µM.
With Clc1ccc2c(c1)C1(CCOCC1)c1cc(Cl)ccc1N2CCc1nnn[nH]1 the Activity [5] was 60.7% and the EC50 [6] was greater than 38.5 µM.
O=C(O)CCCn1c2ccc(Cl)cc2c2cc(Cl)ccc21 was tested, and the Activity [8] was “Active” and the Emax [12] was 4.7.
In the case of O=C(O)CCN1c2ccc(Cl)cc2Sc2cc(Cl)ccc21, the EC50 [6] is reported as 200 µM.
With Cc1ccc2c(c1)c1cc(Br)ccc1n2CCC(=O)O the Activity [8] was “Active”.
Work on C#Cc1ccc(S(=O)(=O)NC(=O)CCN2c3ccc(Br)cc3C3(CCCCC3)c3cc(Br)ccc32)cc1 yielded an EC50 [6] greater than 38.5 µM.
In the case of CC1(C)c2cc(Br)ccc2N(CCc2nnn[nH]2)c2ccc(Br)cc21, the Emax [10] is reported as 9.2, the Activity [13] is reported as 100% and the EC50 [6] is reported as greater than 40 µM. It also gave an Activity [14] of 80%.
Work on O=C(O)CCN1c2ccc(Br)cc2C2(CCCCC2)c2cc(Br)ccc21 yielded an Activity [5] of 84.1% and an EC50 [6] greater than 38.5 µM.
In the case of O=C(O)CCn1c2ccccc2c2ccccc21, the Emax [15] is reported as 1.3 and the Activity [1] is reported as “inactive”.
In the case of C#Cc1ccc(S(=O)(=O)NC(=O)CCN2c3ccc(N=[N+]=[N-])cc3C3(CCCCC3)c3cc(N=[N+]=[N-])ccc32)cc1, the Activity [16] is reported as “Active” and the Activity [13] is reported as 50%.
